# Patent US9120808B2 (NABRIVA THERAPEUTICS AG, priority 2009, dated 2015)
# Read-outs that look alike come from different tables or passages of the source.
# Legend:
# [1] = Pharmacokinetics in mice; assay type: in vivo; conditions: for AUC / Cmax: mouse, plasma
# Method: The values of the PK parameters were calculated by standard noncompartmental analysis, using Kinetica 4.2 (InnaPhase). Plasma concentration values below the limit of quantification were taken as 0. The maximum plasma concentration (Cmax) and the time to reach Cmax were determined from observed data.
# [2] = target: TEM-1 β-lactamase (Escherichia coli, UniProt P62593); test: Cell-free β-lactamase inhibition study (nitrocefin hydrolysis); assay type: biochemical; conditions: 10 min pre-incubation at 37° C., nitrocefin substrate
# Method: (§1) Cell-Free-β-Lactamase Inhibition Study
# (§2) Assays are performed with β-lactamases expressed in the pET system (Novagen, San Diego, Calif.) without signal peptides. They contain an N-terminal hexa-Histidine tag that is used for purification on Ni-NTA (Qiagen, Hilden, Germany). The compounds are prepared as 50 mM stocks in DMSO and diluted into buffer P1 (50 mM phosphate, pH 7) to a final concentration of 10% DMSO. All further dilutions are done in P2 (P1 with 10% DMSO). Enzyme and compound dilutions are pre-incubated for 10 min at 37° C. and the reaction is started with the addition of pre-warmed (37° C.) nitrocefin at a final concentration of […]. […] The initial velocity is determined and IC50 values are calculated using non-linear regression and sigmoidal dose response analysis with the PRISM 4.0 software (Graphpad Software Inc., San Diego, Calif.).
# [3] = test system: K. pneumoniae ATCC 700603; test: In-vitro synergy test, MIC by broth/agar dilution; assay type: cell-based
# Method: (§3) Stock solutions of the test compounds and control antibiotics are prepared in distilled water according to the NCCLS guidelines (NCCLS (National Commitee for Clinical Laboratory Standards). 12(3). 2000. M7-A4). […] All drug weights are corrected for salt forms and refer to the pure drug substance.
# (§4) All tested strains and clinical isolates are either purchased from the American Type Culture Collection (ATCC), kindly supplied by A. Georgopoulos (Vienna General Hospital, Vienna, Austria), and I. Chopra (Leeds, UK), collected from the SENTRY study (F. J. Schmitz, Minden, Germany) or from the Sandoz culture collection.
# (§5) All strain identities are confirmed by BBL Crystal™ Identification Systems (Beckton Dickinson, Cockeysville, Md., USA). Stock cultures are prepared from broth cultures grown at 35° C. for 18-22 h without agitation and subsequent addition of 5% DMSO (v/v, final concentration) as cryoprotectant and stored frozen in liquid nitrogen.
# (§6) Bacterial susceptibility, expressed as MIC, is determined by microbroth dilution technique and agar dilution technique as recommended by the approved standard reference recommendations of the NCCLS.
# (§7) The inoculum is prepared by the direct colony suspension method as described by NCCLS. For this purpose the bacteria are grown on blood agar plates at 35° C. for 24 h. Subsequently 3-5 single colonies are suspended in 5 ml liquid medium. The bacteria are then incubated for 5 h to reach the logarithmic growth phase and subsequently diluted with medium or NaCl (0.86%) to reach a final living cell count equivalent to 10^8 CFU/ml. Then the bacterial suspension is diluted 1:10 and 1 μl (10^4 CFU; final inoculoum 10^5 CFU/ml) is transferred to the test medium containing the antibacterial substances by a multipoint inoculator (Dynatech, Chantilly, Va., USA). The plates are then incubated at 35° C. for 24 h. The MIC is determined optically and defined as the minimum inhibitory concentration [μg/ml] of antibiotic at which no visible bacterial growth occurs.
# [4] = test system: C. freundii 7023771; test: In-vitro synergy test, MIC by broth/agar dilution; assay type: cell-based
# Method: as §3, §4, §5, §6, §7
# [5] = test system: E. cloacae 83989; test: In-vitro synergy test, MIC by broth/agar dilution; assay type: cell-based
# Method: as §3, §4, §5, §6, §7
# [6] = test system: TEM-1 producing E. coli B269 (clinical isolate); assay type: in vivo; conditions: s.c.; 0.5 mg/kg cefepime (0 and 3 h) + 20 mg/kg Example 49 (0, 1.5, 3, 4.5 h after infection)
# Method: A sepsis model in female NMRI mice was employed using TEM-1 producing E. coli B269 (clinical isolate) as the infecting bacterial strain. In general, the final inoculum given in 0.3 ml per mouse intraperitoneally represented a 100% lethal concentration for systemic infections within 48 hours.
# The subcutaneous treatment schedule for the antibiotic at various doses was simultaneous and 3 hours after infection.
# [7] = target: SHV-1 β-lactamase (Klebsiella pneumoniae, UniProt P0AD64); test: Cell-free β-lactamase inhibition study (nitrocefin hydrolysis); assay type: biochemical; conditions: SHV-1; 10 min pre-incubation at 37° C., nitrocefin substrate; read-out: IC50
# Method: as §1, §2
# [8] = MIC of cefepime with 17 μM Example 49
# [9] = MIC of ceftazidime with 68 μM Example 49
# Sequence of SHV-1 β-lactamase (P0AD64 whole entry, looked up): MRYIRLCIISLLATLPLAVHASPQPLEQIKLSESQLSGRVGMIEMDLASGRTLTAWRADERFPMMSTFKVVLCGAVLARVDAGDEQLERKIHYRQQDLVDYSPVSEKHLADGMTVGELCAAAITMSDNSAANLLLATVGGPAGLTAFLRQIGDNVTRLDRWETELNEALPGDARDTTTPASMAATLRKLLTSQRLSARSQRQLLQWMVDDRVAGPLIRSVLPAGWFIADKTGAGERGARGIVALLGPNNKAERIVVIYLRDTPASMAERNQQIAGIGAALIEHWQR
# Sequence of TEM-1 β-lactamase (P62593 whole entry, looked up): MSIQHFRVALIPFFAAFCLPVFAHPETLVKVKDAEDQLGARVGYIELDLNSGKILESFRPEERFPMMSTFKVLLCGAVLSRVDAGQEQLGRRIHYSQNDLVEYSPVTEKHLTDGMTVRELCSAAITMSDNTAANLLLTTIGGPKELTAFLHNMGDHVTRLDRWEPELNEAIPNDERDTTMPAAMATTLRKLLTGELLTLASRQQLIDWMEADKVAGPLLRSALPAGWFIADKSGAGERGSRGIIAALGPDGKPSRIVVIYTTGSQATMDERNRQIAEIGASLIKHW
structure (smiles),measurement,setting,value
"CC1CC(=C2O[C@@H]3CC(=O)N3C2C(=O)O)C(=O)O1 (single isomer, unassigned) [Example 49]",AUC,[1]; oral 25 mg/kg,1090 ng·h/mL
same,Cmax,"[1]; oral 25 mg/kg (cremophor EL/ethanol/glucose in saline), read-out: peak plasma concentration (Cmax)",2220 ng/mL
same,AUC,"[1]; sc, subcutaneous 10 mg/kg",2090 ng·h/mL
same,Cmax,"[1]; sc, subcutaneous 10 mg/kg (0.05 M NaPO4 buffer, pH 7.2), read-out: Cmax",5600 ng/mL
same,Thalf,[1]; oral 25 mg/kg,18.90 min
same,time to reach Cmax,[1]; oral 25 mg/kg,15 min
same,Thalf,[1]; subcutaneous 10 mg/kg,12.27 min
same,time to reach Cmax,[1]; subcutaneous 10 mg/kg,5 min
same,IC50,[2],1.8 nM
same,"Amoxicillin MIC, +68 μM Example 49",[3]; MIC of amoxicillin with 68 μM Example 49,3.2 µg/mL
same,"Cefepime MIC, +17 μM Example 49",[3]; [8],0.2 µg/mL
same,"Ceftazidime MIC, +68 μM Example 49",[3]; [9],0.2 µg/mL
same,"Cefepime MIC, +17 μM Example 49",[4]; [8],0.4 µg/mL
same,"Ceftazidime MIC, +68 μM Example 49",[4]; [9],3.2 µg/mL
same,"Cefepime MIC, +17 μM Example 49",[5]; [8],0.8 µg/mL
same,"Ceftazidime MIC, +68 μM Example 49",[5]; [9],12.8 µg/mL
same,"survival, combination of cefepime and Example 49",[6],survival of all animals
"CO/N=C(\C(=O)N[C@@H]1C(=O)N2C(C(=O)[O-])=C(C[N+]3(C)CCCC3)CS[C@H]12)c1csc(N)n1 [Cefepime, reference compound]","Cefepime MIC, alone",[3]; antibiotic alone,0.8 µg/mL
same,"Cefepime MIC, alone",[4]; antibiotic alone,0.8 µg/mL
"CC1(C)S[C@@H]2[C@H](NC(=O)[C@H](N)c3ccc(O)cc3)C(=O)N2[C@H]1C(=O)O [Amoxicillin, reference compound]","Amoxicillin MIC, alone",[3]; antibiotic alone,>25.6 µg/mL
"CCCC(C(=O)O)=C1O[C@@H]2CC(=O)N2C1C(=O)OC (stereo partly drawn) [Example 54, (5R)-3-(1-Carboxy-butylidene)-7-oxo-4-oxa-1-aza-bicyclo[3.2.0]heptane-2-carboxylic acid methyl ester]",IC50,[2],97 nM
same,IC50,[7],295 nM
"CC(C)(C)C(=O)OCOC(=O)C1C(=C(C=O)C/C=C/c2ccccc2)O[C@@H]2CC(=O)N12 (stereo partly drawn) [Example 18, (5R)-3-[1-Formyl-4-phenyl-but-3-enylidene]-7-oxo-4-oxa-1-aza-bicyclo[3.2.0]heptane-2-carboxylic acid 2,2-dimethyl-propionyloxymethyl ester]",IC50,[2],27.1 nM
same,IC50,[7],13.9 nM
"O=C(OCc1ccccc1)C1C(=C2COC(CI)C2)O[C@@H]2CC(=O)N12 (stereo partly drawn) [Example 59, (5R)-3-[5-Iodomethyl-dihydro-furan-3-ylidene]-7-oxo-4-oxa-1-aza-bicyclo[3.2.0]heptane-2-carboxylic acid benzyl ester]",IC50,[2],4390 nM
same,IC50,[7],3600 nM
"CC(C)(O/N=C(\C(=O)N[C@@H]1C(=O)N2C(C(=O)[O-])=C(C[n+]3ccccc3)CS[C@H]12)c1csc(N)n1)C(=O)O [Ceftazidime, reference compound]","Ceftazidime MIC, alone",[3]; antibiotic alone,>25.6 µg/mL
same,"Ceftazidime MIC, alone",[4]; antibiotic alone,>25.6 µg/mL
same,"Ceftazidime MIC, alone",[5]; antibiotic alone,>25.6 µg/mL
"C=CC/C(CO)=C1\O[C@@H]2CC(=O)N2C1C(=O)OCc1ccccc1 (stereo partly drawn) [Example 38, (5R)-3-[1-Hydroxymethyl-but-3-en-(E)-ylidene]-7-oxo-4-oxa-1-aza-bicyclo[3.2.0]heptane-2-carboxylic acid benzyl ester]",IC50,[2],8020 nM
same,IC50,[7],6810 nM
"COC(=O)C1(C/C=C/c2ccccc2)C(=CC(=O)O)O[C@@H]2CC(=O)N21 (single isomer, unassigned) [Example 36]",IC50,[2],408 nM
same,IC50,[7],642 nM
"CC(C)(C)C(=O)OCOC(=O)C1(C/C=C/c2ccccc2)C(=CC=O)O[C@@H]2CC(=O)N21 (stereo partly drawn) [Example 19, (5R)-7-oxo-3-(2-oxo-ethylidene)-2-(3-phenyl-allyl)-4-oxa-1-aza-bicyclo[3.2.0]heptane-2-carboxylic acid 2,2-dimethyl-propionyloxymethyl ester]",IC50,[2],871 nM
same,IC50,[7],617 nM
"O=C(O)C(C/C=C/c1ccccc1)=C1O[C@@H]2CC(=O)N2C1C(=O)OCc1ccccc1 (stereo partly drawn) [Example 26, (5R)-3-[1-Carboxy-4-phenyl-but-3-enylidene]-7-oxo-4-oxa-1-aza-bicyclo[3.2.0]heptane-2-carboxylic acid benzyl ester]",IC50,[2],9.2 nM
same,IC50,[7],36.3 nM
"COC(=O)C(CCCc1ccccc1)=C1O[C@@H]2CC(=O)N2C1C(=O)OC (stereo partly drawn) [Example 57, (5R)-3-(1-Methoxycarbonyl-4-phenyl-butylidene)-7-oxo-4-oxa-1-aza-bicyclo[3.2.0]heptane-2-carboxylic acid methyl ester]",IC50,[2],10.6 nM
same,IC50,[7],22.6 nM
"C=CCC1(C(=O)OC)C(=CC=O)O[C@@H]2CC(=O)N21 (stereo partly drawn) [Example 17, (5R)-2-Allyl-7-oxo-3-[2-oxo-ethylidene]-4-oxa-1-aza-bicyclo[3.2.0]heptane-2-carboxylic acid methyl ester]",IC50,[2],13300 nM
same,IC50,[7],21300 nM
